Test results taken from patent publication US6337340B1, “Carboxylic acids and isosteres of heterocyclic ring compounds having multiple heteroatoms for vision and memory disorders” (GPI NIL Holdings, Inc., priority 1998, dated 2002).
Marks after values point to notes of the source that are not given here.

Key:
[1] = tested on: retinal ganglion cell axons; test: Protection of retinal ganglion cell axons from degeneration following optic nerve transection (Table V); format: in vivo, rat; conditions: ± SEM
Excerpt: Efficacy of representative compounds from different immunophilin ligand series in protecting retinal ganglion cell axons from degeneration following optic nerve transection is set forth in Table V.

[2] = Clearance (Table V comments); format: in vitro ADME
retinal ganglion cells = test: Retinal ischemia by raised intraocular pressure; format: in vivo, rat
Excerpt: Retinal ganglion cells were retrogradely labeled in adult rate by bilateral injection of fluorogold in their lateral geniculate nuclei. Labeled ganglion cells in the normal rat retina appear as white profiles against the dark background (FIG. 1A). Complete retinal ischemia was produced by infusing normal saline solution into the retinal vitreous cavity of each eye until the intraocular pressure exceeded arterial blood pressure. 28 days after the ischemic episode extensive degeneration of retinal ganglion cell was evidenced by massive reduction in the density of fluorogold labeled cells (FIG. 1B).
Optic nerves from vehicle treated cases examined 28 days after a 1 hour retinal ischemic episode are characterized by a decreased density of optic nerve axons and the appearance of numerous degenerating myelin figures (bright white filled circles).

retina = test: Streptozotocin induced diabetes, retinal neovascularization and neuron loss; format: in vivo
[3] = tested on: retinal ganglion cells and optic nerve axons; test: In vivo retinal ganglion cell and optic nerve axon tests after optic nerve transection; set-up: species or system Sprague Dawley rats; conditions: 90 days after transection
Excerpt: A second groups received the same neuroimmunogphilin FKBP ligand dose for 28 days.
All eyes and optic nerves stumps were removed.

FKBP12 = FKBP12 (Homo sapiens, UniProt P62942); test: Ki Test Procedure: inhibition of peptidyl-prolyl isomerase (rotamase) activity, chymotrypsin-coupled assay; format: biochemical; conditions: apparent Ki; read-out: Ki rotomase
Chain of FKBP12 (P62942 whole entry, species assumed): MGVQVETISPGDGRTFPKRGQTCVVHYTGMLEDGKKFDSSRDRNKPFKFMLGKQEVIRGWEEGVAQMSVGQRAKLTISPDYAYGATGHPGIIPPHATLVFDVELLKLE
Description: The inhibition of the prolyl peptidyl cis-trans isomerase activity of FKBP may be measured as an indicator of this affinity.
These values are obtained as apparent Ki's.
The cis-trans isomerization of an alanine-proline bond in a model substrate, N-succinyl-Ala-Ala-Pro-Phe-p-nitroanilide, is monitored spectrophotometrically in a chymotrypsin-coupled assay, which releases para-nitroanilide from the trans form of the substrate. The inhibition of this reaction caused by the addition of different concentrations of inhibitor is determined, and the data is analyzed as a change in first-order rate constant as a function of inhibitor concentration to yield the apparent Ki values.
In a plastic cuvette are added 950 ml of ice cold assay buffer (25 mM HEPES, pH 7.8, 100 mM NaCl), 10 ml of FKBP (2.5 mM in 10 mM Tris-Cl pH 7.5, 100 mM NaCl, 1 mM dithiothreitol), 25 ml of chymotrypsin (50 mg/ml in 1 mM HCl) and 10 ml of test compound at various concentrations in dimethyl sulfoxide. The reaction is initiated by the addition of 5 ml of substrate (succinyl-Ala-Phe-Pro-Phe-para-nitroanilide, 5 mg/ml in 2.35 mM LiCl in trifluoroethanol).
The absorbance at 390 nm versus time is monitored for 90 seconds using a spectrophotometer and the rate constants are determined from the absorbance versus time data files.

[4] = tested on: streptozotocin-induced diabetic rat; test: Streptozotocin-induced diabetic sensory neuropathy, hot plate and tail flick; format: in vivo, Male Wistar rats; conditions: lesioned animals treated for 6 weeks at 10 mg/kg s.c.
Description: The procedure involved using Male Wistar rats which were given a single injection of streptozotocin (65 mg/kg i.v.). Blood glucose levels were determined weekly for the first three weeks and on the last week of the experiment. Animals were evaluated weekly for signs of sensory neuropathy using the conventional hot plate and tail flick apparatus test procedures.

[5] = tested on: retinal ganglion cells and optic nerve axons; test: In vivo retinal ganglion cell and optic nerve axon tests after optic nerve transection; set-up: species or system Sprague Dawley rats; conditions: for ON axon Count: axonal density multiplied by ON area; for Distal optic nerve myelin basic protein Density: shrinkage: cross sectional area vs sham
aged rodents = test: Morris watermaze spatial learning and memory in aged rodents; format: in vivo, C57BL/6N-Nia mice; conditions: daily 10 mg/kg
Excerpt: The Morris watermaze is widely used for assessing spatial memory formation and retention in experimental animals. The test depends on the animal's ability to utilize spatial visual information in order to locate a submerged escape platform in a water tank. It is important that the tank itself be as devoid of specific visual features as possible—thus, it is always circular in shape, the sides are kept smooth and in uniform dull colors, and the water is rendered opaque with nontoxic watercolor pigment or powdered milk. This is to ensure that the animal navigates only by the use of more distant visual cues, or by the use of intra-maze cues specifically provided by the experimenter.
The animals' path, speed, and swim time are tracked with a ceiling camera for later computerized analysis. Over the course of several successive trials, spatial learning can therefore be defined as a drop of distance swum, or time elapsed, from placement in the tank until escape onto the invisible platform. […]
Retention testing began after 3 weeks of dosing using the same methods as the acquisition phase. Swim Distances (cm) were analyzed in a 7×5 ANOVA including Groups and Blocks (1-5) as factors in the analysis, treating Blocks as a repeated measure.

[6] = 28 day treatment beginning 8 weeks after onset of streptozotocin induced diabetes
[7] = GPI 1046 first 14 days, 90 days after transection
[8] = ONT, GPI 1046 14 days, 90 days after transection
[9] = ONT, GPI 1046 28 days, 90 days after transection

With `O=C(OCCCCc1ccccc1)[C@@H]1CCCCN1S(=O)(=O)Cc1ccccc1` [D] the “RT97+ RGC axon density 11 days after ON transection (36 ON axon rescued)” value (from here on “RT97+ RGC axon density 11 days”) [1] was 58.4% ± 6.4% SEM.
In the case of `O=C(SCCCc1ccccc1)[C@@H]1CCCN1C(=O)NC12CC3CC(CC(C3)C1)C2` [B], the “RT97+ RGC axon density 11 days” value [1] is reported as 100.0% ± 5.2% SEM and the Clearance [2] is reported as 7 µL/min.
In the case of `CCC(C)(C)C(=O)C(=O)N1CCCCC1C(=O)OC(CCc1ccccc1)CCc1ccccc1` (stereo not shown) [E], the “RT97+ RGC axon density 11 days” value [1] is reported as 56.6% ± 9.4% SEM and the Clearance [2] is reported as 41.8 µL/min.
For `CCC(C)(C)C(=O)C(=O)N1CCS[C@H]1C(=O)OCCCc1cccnc1` [F], the “RT97+ RGC axon density 11 days” value [1] was 55.1% ± 5.9% SEM.
For `O=C(SCCCc1ccccc1)[C@@H]1CCCN1S(=O)(=O)Cc1ccccc1` [C], the “RT97+ RGC axon density 11 days” value [1] was 60.4% ± 3.1% SEM and the Clearance [2] was 31.1 µL/min.
`CCC(C)(C)C(=O)C(=O)N1CCCC[C@H]1C(=O)SCCC(c1ccccc1)c1ccccc1` [K] gave a Clearance [2] of 4.5 µL/min.
`CN(C)C(=O)N1CCC[C@H]1C(=O)SCCCc1ccccc1` [N] gave a Clearance [2] of 21.9 µL/min.
With GPI 1046 the “protection of fluorogold labeled retinal ganglion cells” value (retinal ganglion cells; 10 mg/kg s.c. 1 hour prior and 10 mg/kg/day for next four days, 28 days after ischemic episode) was “noticeable protection of a large proportion of the vulnerable ganglion cell population”, the “density of degenerating myelin figures in optic nerve” value (retinal ganglion cells; 28 days after 1 hour retinal ischemic episode) was “dramatically decreased the density of degenerating myelin figures” and the “protection of optic nerve axons from ischemic degeneration” value (retinal ganglion cells; 28 days after 1 hour retinal ischemic episode, toluidine blue staining) was “protected the majority of optic nerve axons from degeneration”. The “loss of neurons in the INL and GCL” value (retina; 28 day treatment beginning 8 weeks after onset of diabetes, vs streptozotocin/vehicle controls) was “appeared to decrease the loss of neurons in both the INL and GCL”, the “neovascularization in the PR, ONL, OPL and INL” value (retina; [6]) was “reduced neovascularization” and the “neuronal loss in the ONL” value (retina; [6]) was “did not appear to protect against neuronal loss in the ONL”. For the same compound, the “RT97+ RGC axon density 11 days” value [1] was 60.5% ± 3.9 SEM, the “preservation of axons of protected neurons in the proximal stump” value ([3]; Example 14, 10 mg/kg/day s.c. 28 days, RT97 immunohistochemistry) was “preserved the axons of virtually all protected neurons” and the “fascicular pattern of myelin labeling in the distal stump” value ([3]; GPI 1046 first 28 days) was “dramatic protection of the fascicular pattern of myelin labeling”. For the same compound, the “pattern of myelin degeneration in the proximal stump (myelin basic protein immunohistochemistry)” value ([3]; GPI 1046 first 28 days) was “dramatic preservation of the fascicular staining pattern”, the “% surviving RGCs with ON axons” value ([3]; ONT, GPI 1046 28 days) was 81.4% and the “ON head area (% sham)” value ([3]; ONT, GPI 1046 28 days) was 95%*. For the same compound, the “Spared RGC population” value ([3]; ONT, GPI 1046 28 days) was 28,096*, the “increased ON axon density” value ([3]; ONT, GPI 1046 28 days, adjusted for optic nerve diameter) was 5.0X and the “Distal optic nerve myelin basic protein Density: myelin preservation” value ([3]; ONT, GPI 1046 28 days, cross sectional area multiplied by myelin density) was 99% myelin % myelin preservation. For the same compound, the “Proximal optic nerve myelin basic protein Density” value ([3]; ONT, GPI 1046 28 days, ± SEM) was 70 ± 6.3 SEM % recovery, the Ki (FKBP12) was 7.5 nM and the “hot plate and tail flick latency” value [4] was “improvement in latency”. For the same compound, the “ganglion cells population spared (perikaryal neuroprotection)” value ([5]; Example 14, 10 mg/kg/day s.c. 28 days, sacrificed 90 days after transection) was 25%, the “density of myelin in the distal stump” value [5, 7] was “slightly increase the density of myelin” and the “pattern of myelin degeneration in the proximal stump (myelin basic protein immunohistochemistry)” value [5, 7] was “did not alter the pattern of myelin degeneration”. The “shrinkage of the distal stump” value [5, 7] was “did not protect against shrinkage”, the “cross sectional shrinkage of the distal stump” value ([5]; GPI 1046 first 28 days, 90 days after transection) was “prevented cross sectional shrinkage” and the “% RGCs Rescued” value [5, 8] was 5.3%. For the same compound, the “% surviving RGCs with ON axons” value [5, 8] was 33.6%, the “ON head area (% sham)” value [5, 8] was 76% and the “Spared RGC population” value [5, 8] was 20,275. The “increased ON axon density” value ([5]; ONT, GPI 1046 14 days, 90 days after transection, adjusted for optic nerve diameter) was 1.5X, the “ON axon Count” value [5, 8] was 6820 and the “Distal optic nerve myelin basic protein Density: myelin loss” value ([5]; ONT, GPI 1046 14 days, 90 days after transection, cross sectional area multiplied by myelin density) was 47% loss. For the same compound, the “Distal optic nerve myelin basic protein Density: shrinkage” value [5, 8] was 33% shrinkage, the “ON Axon density” value ([5]; ONT, GPI 1046 14 days, 90 days after transection, mean ± SEM RT97 labeled axons in 200 μm × 200 μm region) was 569 ± 23 and the “Proximal optic nerve myelin basic protein Density” value ([5]; ONT, GPI 1046 14 days, 90 days after transection, ± SEM) was 1.6 ± 3.0 SEM % recovery. For the same compound, the “RGC Counts” value ([5]; ONT, GPI 1046 28 days 10 mg/kg/day sc, 90 days after transection, mean density ± SEM of Fluoro-gold labeled RGC in 400 μm × 400 μm gridfields) was 67.9 ± 5.8, the “ON axon Count” value [5, 9] was 22,861* and the “Distal optic nerve myelin basic protein Density: shrinkage” value [5, 9] was 56% less % less shrinkage. The “protection of optic nerve axons” value ([5]; proximal stump, GPI 1046 first 14 days after transection, 90 days) was 5.3%, the Clearance [2] was 63.8 µL/min and the “spatial memory performance (swim distance, retention testing)” value (aged rodents; aged impaired mice, retention testing after 3 weeks of dosing) was “significantly enhanced spatial memory performance”. The “difference between young and aged impaired GPI-1046 treated groups, retention phase” value (aged rodents; F1.69=3.09, P=0.08) was “no longer any statistically significant difference”.
With `CCC(C)(C)C(=O)C(=O)N1CCC[C@H]1C(=O)CCCCc1cccnc1` [J] the Clearance [2] was 1.5 µL/min.
With `CCC(C)(C)C(=O)C(=O)N1CCC[C@H]1C(=O)SCCC(c1ccccc1)c1ccccc1` [M] the “RT97+ RGC axon density 11 days” value [1] was −6.3% ± 3.9% SEM and the Clearance [2] was 12.5 µL/min.
In the case of `CCC(C)(C)C(=O)C(=O)N1CCC[C@H]1C(=O)O` [L], the “RT97+ RGC axon density 11 days” value [1] is reported as 7.8% ± 3.0% SEM and the Clearance [2] is reported as 5.2 µL/min.
